# Assay results as given in patent US20180303101A1, “METHOD OF IMPROVING GRASS QUALITY” (priority 2004, published 2018).
# Assays:
# Type in all cases: in vivo
# [1] = test system: Penncross creeping bentgrass; test: Canopy photochemical efficiency (Fv/Fm) at high temperature treatment (Example 1); conditions: plants with and without pretreatment
# Excerpt: (§1) The following test methods were used to compare the effectiveness of a phthalocyanine composition according to the invention with known compositions. The following compositions were used in the experiments: Pigment Green 7 obtained from Sun Chemical Corporation as the water-dispersible product SUN T-64-1660 (containing 45 to 55 wt. % of Pigment Green 7) was used alone. A mixture of Pigment Green 7 and fosetyl-al was used as the commercially available product Chipco® Signature™ fungicide from Bayer Environmental Science, Montvale, N.J. The compound fosetyl-al was used as Chipco® Aliette® WDG fungicide available from Bayer Environmental Science, Montvale N.J.
# (§2) Seeds of “Penncross” creeping bentgrass were sown in polyvinyl chloride (PVC) tubes (10 cm in diameter and 20 cm in length) filled with coarse sand. […]
# (§3) Chlorophyll and carotenoids were extracted by soaking 50 mg fresh shoots in 20 ml dimethyl sulfoxide (DMSO) in the dark for 72 hours. Absorbance of each extractant at 663 nm, 645 nm, and 470 nm was used to determine chlorophyll content using the formula of Arnon (1949) and carotenoids content using the formula of Lichtenthaler and Wellburn (1983) Canopy photochemical efficiency was estimated by measuring chlorophyll fluorescence (Fv/Fm) using plant photosynthesis efficiency analyzer (available from ADC Bioscientific Limited, Herts, England).
# [2] = test system: Penncross creeping bentgrass; test: Carotenoids content at high temperature treatment (Example 1); conditions: plants with or without pretreatment
# Excerpt: as §1, §2, §3
# [3] = test system: creeping bentgrass (variety Penncross) turf; test: Bentgrass color rating after foliar spray (Example 2); conditions: 6 weeks after treatment; 6.8, 13.9 and 20.4 grams per 1000 sq. ft.; analysis of variance
# Excerpt: (§4) Pigment Green 7 was suspended in water and applied as a foliar spray to creeping bentgrass (variety Penncross) turf with a pressurized sprayer at a spray volume of 1.37 gallons of water per 1000 sq. ft. (ca. 560 l/ha). Pigment Green 7 was applied at rates of 6.8, 13.9, and 20.4 grams per 1000 sq. ft. (0.73, 1.5, and 2.2 kg/ha, respectively). Each treatment was replicated 4 times. An untreated plot was included and was also replicated four times. The average color of the bentgrass was visually evaluated at 6 weeks after treatment. Color was evaluated on a qualitative scale from 1-9, with 9 being the highest quality and 1 the lowest quality.
# [4] = test system: creeping bentgrass (variety Penncross) turf; test: Bentgrass color rating after foliar spray (Example 3); conditions: 6 weeks after treatment; Aliette 4 oz, Signature 4 and 8 oz, Pigment 6.8 and 13.6 g per 1000 sq. ft.; analysis of variance
# Description: Fosetyl-al (in the form of Aliette brand fungicide), fosetyl-al plus Pigment Green 7 (in the form of Signature brand Aliette fungicide), and Pigment Green 7 were separately suspended in water and applied as a foliar spray to creeping bentgrass (variety Penncross) turf with a pressurized sprayer at a spray volume of 1.37 gallons of water per 1000 sq. ft. (ca. 560 l/ha).
# Treatments were applied at the following rates: • Aliette 4 oz/1000 sq. ft. (ca. 1.3 mL/m2) • Signature 4 oz/1000 sq. ft. (ca. 1.3 mL/m2) • Signature 8 oz/1000 sq. ft. (ca. 2.5 mL/m2) • Pigment 6.8 g/1000 sq. ft. (0.73 kg/ha) • Pigment 13.6 g/1000 sq. ft. (1.5 kg/ha)
# [5] = test system: creeping bentgrass (variety Penncross) turf; test: Bentgrass color rating after foliar spray (Example 4); conditions: 6 weeks after treatment; iprodione 4 oz/1000 sq. ft.; Pigment Green 7 6.8 or 13.6 g/1000 sq. ft. in combination, 13.6 g alone
# Excerpt: as §4
# The procedure of Example 2 was repeated using iprodione fungicide (in the form of 26 GT brand iprodione fungicide) at 4 oz/1000 sq. ft. (ca. 1.3 mL/m2), iprodione at 4 oz/1000 sq. ft. (ca. 1.3 mL/m2) plus Pigment Green 7 at 6.8 g/1000 sq. ft. (0.73 kg/ha), iprodione at 4 oz/1000 sq. ft. plus Pigment Green 7 at 13.6 g/1000 sq. ft. (1.5 kg/ha), and Pigment Green 7 at 13.6 g/1000 sq. ft. (1.5 kg/ha). At 6 weeks after treatment, the color ratings were as follows.
# [6] = test system: Corn; test: Glasshouse study, soil drench applications of pigment on corn growth and photosynthesis (Example 10); conditions: for Chlorophyl: CM1000 meter readings; for Total height (avg, cm): soil to youngest fully expanded leaf tip; for Distance between collars (avg, cm): two top collars; for Net photosynthesis: youngest fully collared leaf
# Description: A glasshouse study was conducted to determine the effect of soil drench applications of phthalocyanine pigment on corn growth and photosynthesis.
# Corn was grown from seed in 6 inch (15 cm) pots in a potting soil mix. Pigment Green 7 was diluted in water in the four amounts per gallon (3.8 liter) of water indicated in the Table and applied directly to the soil. Treatments were initiated in March when corn was at the three leaf stage. Approximately 250 ml of the aqueous pigment mixture was applied to the soil on day 0 and day 6. On day 21 plants were placed in trays containing the pigment Water was maintained in the trays as needed to replenished evapotranspiration.
# Net photosynthesis of the youngest fully collared leaf (i.e., leaf 7) was measured using a LiCor 6400 instrument as μmol m−2s−1 of CO2. Leaf chlorophyll measurements were made using a CM1000 leaf […] meter (Spectrum Technologies). Plant height, stem diameter, and leaf width were also measured at the end of the conclusion of the study.
substance,measurement,setting,value
Pigment Green 7,Photochemical efficiency (Fv/Fm),[1],highest
same,Carotenoids content,[2],higher with application of Signature fungicide and Pigment Green 7 than with application of Aliette fungicide and water
same,"Color rating (visual, scale 1-9) versus untreated check",[3],significantly different than the untreated check
same,Color rating versus untreated check,[4],significantly different than the untreated check
same,Color rating versus untreated check,[5],significantly greener than the untreated
same,"Height soil to collar (avg, cm)",[6]; pigment concentration 1 g/gal,58 cm
same,"Leaf width (avg, cm)",[6]; pigment concentration 1 g/gal,5.2 cm
same,"Stem diameter (avg, cm)",[6]; pigment concentration 1 g/gal,1.04 cm
same,Chlorophyl,[6]; pigment concentration 1 g/gal,141
same,"Total height (avg, cm)",[6]; pigment concentration 1 g/gal,145 cm
same,"Distance between collars (avg, cm)",[6]; pigment concentration 1 g/gal,4.9 cm
same,Net photosynthesis,[6]; pigment concentration 1 g/gal,13.0 μmol m−2s−1 of CO2
same,"Height soil to collar (avg, cm)",[6]; pigment concentration 8 g/gal,59 cm
same,"Leaf width (avg, cm)",[6]; pigment concentration 8 g/gal,5.6 cm
same,"Stem diameter (avg, cm)",[6]; pigment concentration 8 g/gal,0.99 cm
same,Chlorophyl,[6]; pigment concentration 8 g/gal,122
same,"Total height (avg, cm)",[6]; pigment concentration 8 g/gal,148 cm
same,"Distance between collars (avg, cm)",[6]; pigment concentration 8 g/gal,5.5 cm
same,Net photosynthesis,[6]; pigment concentration 8 g/gal,12.8 μmol m−2s−1 of CO2
same,"Height soil to collar (avg, cm)",[6]; pigment concentration 16 g/gal,55 cm
same,"Leaf width (avg, cm)",[6]; pigment concentration 16 g/gal,5.2 cm
same,"Stem diameter (avg, cm)",[6]; pigment concentration 16 g/gal,1.01 cm
same,Chlorophyl,[6]; pigment concentration 16 g/gal,115
same,"Total height (avg, cm)",[6]; pigment concentration 16 g/gal,137 cm
same,"Distance between collars (avg, cm)",[6]; pigment concentration 16 g/gal,5.7 cm
same,Net photosynthesis,[6]; pigment concentration 16 g/gal,13.6 μmol m−2s−1 of CO2
same,"Height soil to collar (avg, cm)",[6]; pigment concentration 32 g/gal,54 cm
same,"Leaf width (avg, cm)",[6]; pigment concentration 32 g/gal,5.6 cm
same,"Stem diameter (avg, cm)",[6]; pigment concentration 32 g/gal,1.00 cm
same,Chlorophyl,[6]; pigment concentration 32 g/gal,132
same,"Total height (avg, cm)",[6]; pigment concentration 32 g/gal,132 cm
same,"Distance between collars (avg, cm)",[6]; pigment concentration 32 g/gal,6.0 cm
same,Net photosynthesis,[6]; pigment concentration 32 g/gal,13.3 μmol m−2s−1 of CO2
